Columns and labels:
[1] = test system: C. albicans strain SC5314; experiment: Fungal challenge and assessment of protection, strain SC5314; format: in vivo, BALB/c mice; details: Fba peptide by dendritic cell approach
Procedure: (§1) Two weeks after the second boost, immune and control mice were infected intravenously (i.v.) with a lethal dose of live C. albicans yeast cells (5×10^5 in 0.1 ml of DPBS) prepared as described above and as before (53). Passively immunized mice (below) also received the same challenge dose. Protection was evaluated by monitoring animal survival for 80-100 days. The mice were monitored 2-3 times daily for the development of a moribund state, defined as being listless, disinterested in food or water, and nonreactive to finger probing. At the time that a mouse was deemed moribund, it was sacrificed and their kidneys (for some experiments, brains) were homogenized in DPBS and plated onto a nutrient agar to determine colony forming units (CFUs). After 80-100 days, the experiments were terminated and all the survivors at that time were sacrificed and their kidneys were assessed for CFU as before. The lowest limit of detection for the CFU assay was 50 CFU per kidney pair.
To test if vaccination with the Fba peptide pulsed DCs protects mice challenged with a different C. albicans strain, we challenged immunized mice with C. albicans strain SC5314 (ATCC), which is the most commonly used clinical isolate of C. albicans for research purposes. As a positive control, a second group of mice immunized at the same time were challenged with C. albicans strain 3153A.

Fba peptide [2] = test system: Fba peptide; set-up: species or system BALB/c mice; details: mouse, in vivo
Fba peptide [3] = experiment: Rabbit antisera against the Fba peptide (titers); format: in vivo; details: Fba conjugated to KLH; each of two rabbits; commercial source (Genscript); data not shown
From the text: To obtain enough antisera for passive transfer experiments, and to determine whether the Fba peptide is immunologically restricted in other animal species, we obtained rabbit antisera against the peptide from a commercial source (Genscript). Fba was conjugated to keyhole limpet hemocyanin (KLH) prior to the rabbit immunizations.

MAb E2-9 = experiment: Inhibition ELISA (MAb E2-9 on Fba-MAP coated wells, Fba peptide as inhibitor); format: binding; details: soluble Fba peptide inhibiting MAb E2-9 reactivity with solid phase Fba-MAP
Procedure: The specificity of MAb E2-9 for Fba peptide was determined by an inhibition ELISA as described previously (52, 53). Briefly, Fba-MAP was dissolved in DPBS (5 μg/ml), and the solution was used to coat 96-well ELISA plates (100 μl, overnight at 4° C.). The wells were washed five times with PBST (PBS containing Tween 20, 0.05% [vol/vol] and blocked with 1% bovine serum albumin-PBST. MAb E2-9 produced as described above, was serially diluted up to 10,000 for ELISA measurements. Unless otherwise stated, the serum was diluted 1:100 dilution in DPBS to determine the content of antibody by ELISA. MAb E2-9 was mixed with Fba peptide (inhibitor) (dissolved in PBST at a concentration between 0.1 μM and 1 mM), and the resulting solution of each concentration was added to the Fba-MAP coated microtiter wells (solid phase) in triplicate and incubated at 21 to 23° C. for 2 h. Unless otherwise stated, the concentration of test antigens used to coat the wells was about 5-10 μg/ml. […] Color was allowed to develop for 10 min, stopped by addition of […] of 2 M H2SO4, and read at 492 nm (microtiter plate reader, model 450; Bio-Rad, Richmond, Calif.). The percent inhibition was calculated relative to wells containing antibody without inhibitor.

Fba peptide [4] = experiment: ELISA antibody responses against the Fba peptide in C57BL/6 mice; format: in vivo; details: DC-based immunization; 14 days after second booster
Procedure: Sera were ELISA analyzed for antibody titers. For DC-based immunization, control groups consisted of mice given DCs alone at the time of priming and first booster followed by CFA alone at the time of the second booster, or DPBS alone for all three injections. For Fba peptides administered with alum or MPL, control groups were mice given adjuvant alone or DPBS buffer. […] Synthetic Fba-MAP (GenScript) was dissolved at 5 μg/ml in PBS (pH 7.4) and used to coat 96-well ELISA plates for testing duplicate serial 2-fold dilutions of samples of each immune serum and control sera. Color development for each well was achieved by use of secondary antibody (goat anti-mouse polyvalent Ig-HRP) and substrate (O-phenylenediamine and H2O2) and OD determined at 492 nm.
By the same DC-based immunization approach used for the BALB/c mice as described above, C57BL/6 mice was tested with the Fba peptide was given alone or as a glycoconjugate compared to the control groups of mice injected with DPBS buffer, or DCs+CFA.
Fourteen days after the second booster, immune sera were tested by ELISA for antibody responses against the Fba peptide.

C. albicans strain 3153A = experiment: Fungal challenge and assessment of protection (disseminated candidiasis), peptide vaccines; format: in vivo, BALB/c mice; details: peptide-pulsed DC vaccine
Procedure: C. albicans 3153A and SC5314, C. krusei (ATCC 6258), C. glabrata (ATCC 2001) and Saccharomyces cerevisiae (ATCC 9463) were obtained from the American Type Culture Collection (ATCC; Manassas, Va.) and were grown as stationary-phase yeast cells in glucose-yeast extract-peptone broth at 37° C., washed and suspended to the appropriate cell concentration (5×10^6/ml) in Dulbecco's PBS (DPBS; Sigma-Aldrich, St. Louis, Mo.), and used to infect mice intravenously (i.v.) as previously described (25, 29). C. albicans strain 3153A was also used for serum antibody absorption, immunofluorescence staining and flow cytometric analysis. Unless otherwise indicated, C. albicans strain 3153A was used to challenge the mice in the examples below.
as §1
Two weeks after the second boost, immune and control mice were infected i.v. with a lethal dose of live C. albicans yeast cells (5×10^5 in 0.1 ml of DPBS). Passively immunized mice also received the same challenge dose. Protection was evaluated by monitoring animal survival for up to 120 days and by quantifying the number of CFU (mean±SE) per kidney pairs. Median survival times (MST) were statistically evaluated by Kaplan-Meier (GraphPad Prism, version 4). In all analyses, there were five mice per group (n=5), and a two-tailed t test was used.

C. albicans = experiment: Immunofluorescence and flow cytometric analysis of binding to fungal cell surface; format: cell-based; details: live fungal cells reacted with immune serum of peptide-immunized mice
Procedure: Distribution of the Fba peptide epitope on yeast cells was determined by indirect immunofluorescence. […] The yeast cells were suspended in the antibody preparation and incubated while shaking by rotation at room temperature (RT, 22-24° C.) for 1-2 h. After incubation, the yeast cells were washed with DPBS three times, suspended in 200 μl of fluorescein-labeled goat anti-mouse IgM (u-chain specific; Sigma) (stock solution, 1 mg/ml; working solution, 20 μg/ml of DPBS) and incubated at RT as described above for 0.5 h. The yeast cells were washed with DPBS three times and suspended in 200 μl of DPBS. The cells were observed by confocal microscopy (LSM 510, Zeiss). The distribution of the Fba peptide epitope on the yeast cell surface was compared to that obtained with yeast cells fluorescently stained for detection of the MAb B6.1 epitope. […] For flow cytometric analysis, following the last incubation, cells were washed as described above and suspended in the 500 μl DPBS buffer. Flow cytometry was performed using a BD Biosciences FACSVantage SE equipped with an argon laser excitation at 488 nm. 10,000 cells in each sample were analyzed (CellQuest Pro software).
Distribution of the β-(Man)3 and Fba peptide epitopes on yeast cells was determined by use of immune serum for flow cytometric analysis and indirect immunofluorescence. One hundred microliters of immune serum (1:100 dilution in 1% BSA/DPBS) was added to a pellet of C. albicans yeast cells (5×10^6) that was prewashed with DPBS buffer three times. The yeast cells were suspended in the immune serum [from β-(Man)3-Fba-TT immunized mice] preparation and incubated while shaking by rotation at room temperature (RT, 22-24° C.) for 1-2 h. After incubation, the yeast cells were washed with DPBS three times, suspended in 200 μl of fluorescein-labeled goat anti-mouse IgM (μ-chain specific; Sigma) (stock solution, 1 mg/ml; working solution, 20 μg/ml of DPBS) and incubated at RT described above for 0.5 h. The yeast cells were washed with DPBS three times and suspended in 500 μl of DPBS. Flow cytometry was performed using a BD Biosciences FACSVantage SE equipped with an argon laser excitation at 488 nm. 10,000 cells in each sample were analyzed (CellQuest Pro software).
For immunofluorescence assays, the fungal cells were immunostained and washed as described above and suspended in the 200 μl DPBS buffer. The cells were observed by confocal microscopy (LSM 510, Zeiss). The distribution of the β-(Man)3 and Fba peptide epitopes on the yeast cell surface was compared to that obtained with yeast cells fluorescently stained for detection of the MAb B6.1 epitope.

## YGKDVKDLFDYAQE [Fba]
[1]; vs DCs+CFA or DPBS (P<0.01)
  survival time: significant prolonged survival time
[1]; vs controls (P<0.01)
  CFUs in kidneys: greatly reduced or non-detectable CFUs
Fba peptide [2]
  anti-Fba IgM and IgG antibodies in sera: very low levels of anti-Fba IgM and IgG antibodies
Fba peptide [3]
  Titers of anti-Fba peptide immune sera: 512,000
MAb E2-9
  concentration of inhibitor (Fba peptide) required to achieve 50% inhibitory concentration: about 10 μg/ml
Fba peptide [4]
  antibody responses against the Fba peptide (ELISA, Fba-MAP coated plates): strong antibody responses
C. albicans strain 3153A; vs DPBS or DCs+CFA controls
  protection against disseminated candidiasis (survival): a high degree of protection
C. albicans strain 3153A; vs controls, detection limit 50 CFU per kidney pair
  viable fungal units (CFUs) in kidneys: low or even non-detectable
C. albicans
  binding of antibody in the immune serum to the peptides expressed on C. albicans cell surface (flow cytometric analysis): expressed on the fungal surface and are accessible to antibodies in immune sera
